Measured values reported in ChEMBL document CHEMBL4393686, “InCl3 mediated heteroarylation of indoles and their derivatization via CH activation strategy: Discovery of 2-(1H-indol-3-yl)-quinoxaline derivatives as a new class of PDE4B selective inhibitors for arthritis and/or multiple sclerosis” (Eur J Med Chem, 2019).
pIC50: −log10 of the molar value. The source made the active and inactive calls. No cut-off for these calls is given here.

Columns and labels:
[1] = test system: Rattus norvegicus; experiment: Antiinflammatory activity in complete Freund's adjuvant-induced Wistar rat arthritis model assessed as reduction in TNFalpha mRNA expression at 30 mg/kg, ip administered from 11th day to 20th day by qPCR analysis; type: functional, organism-based
[2] = Toxicity in zebrafish embryo assessed as effect in lower jaw formation at 1 to 100 uM; parameters: species or system Danio rerio; settings: in vivo
[3] = Toxicity in zebrafish embryo assessed as effect in upper jaw formation at 1 to 100 uM; parameters: species or system Danio rerio; settings: in vivo
[4] = test system: Rattus norvegicus; experiment: Antiarthritic activity in complete Freund's adjuvant-induced Wistar rat arthritis model assessed as reduction in pannus formation at 30 mg/kg, ip administered from 11th day to 20th day by H&E staining based microscopic analysis; type: functional, organism-based
[5] = molecular target: 3',5'-cyclic-AMP phosphodiesterase 4D (Homo sapiens, UniProt Q08499); experiment: Inhibition of PDE4D2 (unknown origin) using cAMP as substrate preincubated with enzyme for 15 mins followed by substrate addition and incubated for 1 hr by PDELight HTS cAMP phosphodiesterase Kit based luminometry
3',5'-cyclic-AMP phosphodiesterase 4D, sequence (Q08499 whole entry): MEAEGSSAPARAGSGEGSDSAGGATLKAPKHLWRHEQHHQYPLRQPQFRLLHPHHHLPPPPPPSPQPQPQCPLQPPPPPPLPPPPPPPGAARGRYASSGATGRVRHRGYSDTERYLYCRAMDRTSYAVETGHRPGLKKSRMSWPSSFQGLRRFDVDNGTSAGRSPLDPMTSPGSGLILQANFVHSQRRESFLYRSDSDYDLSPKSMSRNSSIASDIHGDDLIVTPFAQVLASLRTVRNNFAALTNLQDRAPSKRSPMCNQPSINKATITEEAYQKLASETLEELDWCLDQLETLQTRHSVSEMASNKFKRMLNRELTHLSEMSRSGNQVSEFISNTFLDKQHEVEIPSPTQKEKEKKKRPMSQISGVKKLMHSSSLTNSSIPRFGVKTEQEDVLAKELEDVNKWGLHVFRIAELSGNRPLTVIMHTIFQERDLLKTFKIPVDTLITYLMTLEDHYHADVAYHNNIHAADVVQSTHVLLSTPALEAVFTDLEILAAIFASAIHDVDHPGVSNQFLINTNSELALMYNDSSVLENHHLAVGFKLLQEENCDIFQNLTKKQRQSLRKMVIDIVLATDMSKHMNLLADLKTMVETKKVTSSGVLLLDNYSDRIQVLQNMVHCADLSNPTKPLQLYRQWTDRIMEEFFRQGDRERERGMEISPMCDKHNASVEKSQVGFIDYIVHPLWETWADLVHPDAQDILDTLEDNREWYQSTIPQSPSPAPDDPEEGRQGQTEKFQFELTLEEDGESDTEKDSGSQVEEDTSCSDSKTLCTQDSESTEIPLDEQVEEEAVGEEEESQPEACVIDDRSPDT

[6] = molecular target: 3',5'-cyclic-AMP phosphodiesterase 7B (Homo sapiens) (UniProt Q9NP56); experiment: Inhibition of recombinant N-terminal GST tagged and C-terminal His-tagged human PDE7B (109-ens aa) expressed in Sf9 cells using FAM-cAMP as substrate at 10 uM incubated for 60 mins by fluorescence plate reader analysis
3',5'-cyclic-AMP phosphodiesterase 7B (Homo sapiens), sequence (Q9NP56 whole entry): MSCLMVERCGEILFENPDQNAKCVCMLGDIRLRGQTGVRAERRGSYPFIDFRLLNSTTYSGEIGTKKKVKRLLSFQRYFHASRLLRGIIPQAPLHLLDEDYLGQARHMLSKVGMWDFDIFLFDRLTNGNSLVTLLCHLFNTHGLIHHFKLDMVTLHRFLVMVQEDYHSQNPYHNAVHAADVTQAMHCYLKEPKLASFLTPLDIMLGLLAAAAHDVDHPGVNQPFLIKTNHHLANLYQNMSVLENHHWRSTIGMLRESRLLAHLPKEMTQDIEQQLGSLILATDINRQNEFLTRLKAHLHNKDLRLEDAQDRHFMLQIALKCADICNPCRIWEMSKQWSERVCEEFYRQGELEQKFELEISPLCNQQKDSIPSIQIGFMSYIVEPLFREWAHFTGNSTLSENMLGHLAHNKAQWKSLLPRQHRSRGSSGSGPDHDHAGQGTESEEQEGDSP

[7] = Intrinsic clearance in rat liver microsomes at 5 uM by LC-MS/MS analysis; type: ADME, Microsome; settings: read-out: CLH
[8] = molecular target: 3',5'-cyclic-AMP phosphodiesterase 4B (Homo sapiens, UniProt Q07343); experiment: Inhibition of human recombinant His-tagged PDE4B expressed in Sf9 cells using cAMP as substrate at 10 uM preincubated with enzyme for 15 mins followed by substrate addition and incubated for 1 hr by PDELight HTS cAMP phosphodiesterase Kit based luminometry relative to control
3',5'-cyclic-AMP phosphodiesterase 4B, sequence (Q07343 whole entry): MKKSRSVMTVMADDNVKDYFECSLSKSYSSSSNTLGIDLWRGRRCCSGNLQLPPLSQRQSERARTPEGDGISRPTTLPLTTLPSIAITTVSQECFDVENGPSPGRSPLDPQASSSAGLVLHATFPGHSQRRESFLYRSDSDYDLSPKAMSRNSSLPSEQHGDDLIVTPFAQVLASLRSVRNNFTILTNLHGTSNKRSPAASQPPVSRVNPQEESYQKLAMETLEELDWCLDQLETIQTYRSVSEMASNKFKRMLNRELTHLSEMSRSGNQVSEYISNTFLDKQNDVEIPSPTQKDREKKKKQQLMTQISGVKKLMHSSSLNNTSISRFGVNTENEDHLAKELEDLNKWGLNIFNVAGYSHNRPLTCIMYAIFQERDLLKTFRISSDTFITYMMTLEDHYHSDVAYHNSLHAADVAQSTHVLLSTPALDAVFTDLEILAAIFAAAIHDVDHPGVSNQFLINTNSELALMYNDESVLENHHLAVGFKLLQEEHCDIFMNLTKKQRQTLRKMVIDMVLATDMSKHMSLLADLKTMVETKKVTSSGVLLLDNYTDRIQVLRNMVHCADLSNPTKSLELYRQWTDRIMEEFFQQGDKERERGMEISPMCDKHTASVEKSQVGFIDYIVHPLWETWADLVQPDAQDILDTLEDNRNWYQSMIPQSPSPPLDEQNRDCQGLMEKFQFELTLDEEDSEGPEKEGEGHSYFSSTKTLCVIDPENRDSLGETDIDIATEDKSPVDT

[9] = Hepatotoxicity in zebrafish embryos assessed as yolk sac retention at 1 to 100 uM incubated for 7 dpf; type: toxicity, Danio rerio; settings: in vivo
[10] = Inhibition of recombinant N-terminal GST-tagged full length human PDE4A1A expressed in Sf9 cells using cAMP as substrate at 10 uM incubated for 60 mins by fluorescence plate reader analysis
[11] = molecular target: High affinity 3',5'-cyclic-AMP phosphodiesterase 7A (Homo sapiens) (UniProt Q13946); experiment: Inhibition of recombinant N-terminal GST tagged human PDE7A1 (122-end aa) expressed in Sf9 cells using FAM-cAMP as substrate at 10 uM incubated for 60 mins by fluorescence plate reader analysis
High affinity 3',5'-cyclic-AMP phosphodiesterase 7A (Homo sapiens), sequence (Q13946 whole entry): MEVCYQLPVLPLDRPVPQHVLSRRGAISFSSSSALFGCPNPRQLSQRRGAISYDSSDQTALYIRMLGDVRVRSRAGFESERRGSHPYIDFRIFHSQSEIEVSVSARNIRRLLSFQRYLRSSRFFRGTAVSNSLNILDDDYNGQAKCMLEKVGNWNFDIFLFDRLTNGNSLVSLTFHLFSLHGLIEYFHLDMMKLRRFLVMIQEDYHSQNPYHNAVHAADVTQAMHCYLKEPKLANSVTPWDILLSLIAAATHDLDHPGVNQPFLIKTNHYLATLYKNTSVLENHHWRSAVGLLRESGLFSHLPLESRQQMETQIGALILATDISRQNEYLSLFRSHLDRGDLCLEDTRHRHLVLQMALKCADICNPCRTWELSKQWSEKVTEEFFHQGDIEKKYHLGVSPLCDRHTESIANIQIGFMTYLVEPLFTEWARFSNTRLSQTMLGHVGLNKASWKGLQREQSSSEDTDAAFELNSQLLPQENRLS

[12] = AUC (0 to infinity) in BALB/c mouse at 10 mg/kg, iv measured for 24 hrs post dose by LC-MS/MS analysis; type: ADME, organism-based; parameters: dose 10 mg/kg, time infinity, route intravenous; settings: in vivo
[13] = Toxicity in zebrafish embryo assessed as effect in fin formation at 1 to 100 uM; parameters: species or system Danio rerio; settings: in vivo
[14] = Toxicity in zebrafish embryo assessed as effect in liver formation at 1 to 100 uM; parameters: species or system Danio rerio; settings: in vivo
[15] = test system: Danio rerio; experiment: Anti-sclerotic activity in MOG/CFA-induced zebra fish EAE model assessed as reduction in lesion score at 3 to 30 mg/kg, ip measured for 7 days; type: functional, organism-based
[16] = molecular target: cGMP-dependent 3',5'-cyclic phosphodiesterase (Homo sapiens) (UniProt O00408); experiment: Inhibition of recombinant N-terminal-GST-Th-tagged full length human PDE2A1 expressed in Sf9 cells using FAM-cAMP as substrate at 10 uM incubated for 60 mins by fluorescence plate reader analysis
[17] = molecular target: High affinity cAMP-specific and IBMX-insensitive 3',5'-cyclic phosphodiesterase 8A (Homo sapiens) (UniProt O60658); experiment: Inhibition of recombinant N-terminal GST-tagged full length human PDE8A1 expressed in Sf9 cells using FAM-cAMP as substrate at 10 uM incubated for 60 mins by fluorescence plate reader analysis
[18] = Half life in rat liver microsomes at 5 uM by LC-MS/MS analysis; type: ADME, Microsome
[19] = Hepatotoxicity in zebrafish embryos assessed as liver degeneration at 1 to 100 uM incubated for 7 dpf; type: toxicity, Danio rerio; settings: in vivo
[20] = molecular target: Dual 3',5'-cyclic-AMP and -GMP phosphodiesterase 11A (Homo sapiens) (UniProt Q9HCR9); experiment: Inhibition of recombinant N-terminal GST-tagged full length human PDE11A4 expressed in Sf9 cells using FAM-cAMP as substrate at 10 uM incubated for 60 mins by fluorescence plate reader analysis
Dual 3',5'-cyclic-AMP and -GMP phosphodiesterase 11A (Homo sapiens), sequence (Q9HCR9 whole entry, looked up): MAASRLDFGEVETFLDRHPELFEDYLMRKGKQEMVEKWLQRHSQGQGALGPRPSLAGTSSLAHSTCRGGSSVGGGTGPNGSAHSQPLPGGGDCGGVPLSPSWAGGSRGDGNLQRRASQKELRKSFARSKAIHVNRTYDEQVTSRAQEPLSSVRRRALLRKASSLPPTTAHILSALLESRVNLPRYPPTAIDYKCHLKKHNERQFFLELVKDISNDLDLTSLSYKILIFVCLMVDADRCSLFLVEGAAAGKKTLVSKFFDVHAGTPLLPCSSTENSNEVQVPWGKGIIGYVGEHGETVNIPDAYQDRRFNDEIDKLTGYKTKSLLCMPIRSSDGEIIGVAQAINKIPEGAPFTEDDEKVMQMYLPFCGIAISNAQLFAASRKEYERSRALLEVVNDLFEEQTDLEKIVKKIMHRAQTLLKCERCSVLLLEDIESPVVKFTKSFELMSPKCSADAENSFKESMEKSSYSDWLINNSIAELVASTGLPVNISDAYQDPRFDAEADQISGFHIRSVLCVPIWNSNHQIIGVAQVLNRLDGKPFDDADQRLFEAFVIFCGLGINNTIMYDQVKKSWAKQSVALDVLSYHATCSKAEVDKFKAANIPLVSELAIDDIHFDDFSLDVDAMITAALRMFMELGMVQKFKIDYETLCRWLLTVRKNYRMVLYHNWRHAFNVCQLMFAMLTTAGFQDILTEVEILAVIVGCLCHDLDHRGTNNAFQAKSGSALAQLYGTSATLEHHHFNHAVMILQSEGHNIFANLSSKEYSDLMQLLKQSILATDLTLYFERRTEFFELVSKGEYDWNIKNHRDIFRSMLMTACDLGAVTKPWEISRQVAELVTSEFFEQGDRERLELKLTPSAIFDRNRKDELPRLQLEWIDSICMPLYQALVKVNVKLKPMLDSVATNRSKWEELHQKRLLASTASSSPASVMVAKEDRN

[21] = Half life in BALB/c mouse at 10 mg/kg, iv measured for 24 hrs post dose by LC-MS/MS analysis; type: ADME, organism-based; settings: in vivo
[22] = Toxicity in zebrafish embryo assessed as effect in brain formation at 1 to 100 uM; type: tissue-based, Danio rerio; settings: in vivo
[23] = test system: Rattus norvegicus; experiment: Analgesic activity in complete Freund's adjuvant-induced Wistar rat arthritis model assessed as increase in reaction time at 30 mg/kg, ip administered from 11th day 20th day with last dose administered 30 mins prior to test by hot-plate test; type: functional, organism-based
[24] = molecular target: cAMP and cAMP-inhibited cGMP 3',5'-cyclic phosphodiesterase 10A (Homo sapiens) (UniProt Q9Y233); experiment: Inhibition of recombinant -N-terminal GST-tagged human PDE10A1 (aa 2-789) expressed in Sf9 cells using FAM-cAMP as substrate at 10 uM incubated for 60 mins by fluorescence plate reader analysis
cAMP and cAMP-inhibited cGMP 3',5'-cyclic phosphodiesterase 10A (Homo sapiens), sequence (Q9Y233 whole entry, the tested form may be a part): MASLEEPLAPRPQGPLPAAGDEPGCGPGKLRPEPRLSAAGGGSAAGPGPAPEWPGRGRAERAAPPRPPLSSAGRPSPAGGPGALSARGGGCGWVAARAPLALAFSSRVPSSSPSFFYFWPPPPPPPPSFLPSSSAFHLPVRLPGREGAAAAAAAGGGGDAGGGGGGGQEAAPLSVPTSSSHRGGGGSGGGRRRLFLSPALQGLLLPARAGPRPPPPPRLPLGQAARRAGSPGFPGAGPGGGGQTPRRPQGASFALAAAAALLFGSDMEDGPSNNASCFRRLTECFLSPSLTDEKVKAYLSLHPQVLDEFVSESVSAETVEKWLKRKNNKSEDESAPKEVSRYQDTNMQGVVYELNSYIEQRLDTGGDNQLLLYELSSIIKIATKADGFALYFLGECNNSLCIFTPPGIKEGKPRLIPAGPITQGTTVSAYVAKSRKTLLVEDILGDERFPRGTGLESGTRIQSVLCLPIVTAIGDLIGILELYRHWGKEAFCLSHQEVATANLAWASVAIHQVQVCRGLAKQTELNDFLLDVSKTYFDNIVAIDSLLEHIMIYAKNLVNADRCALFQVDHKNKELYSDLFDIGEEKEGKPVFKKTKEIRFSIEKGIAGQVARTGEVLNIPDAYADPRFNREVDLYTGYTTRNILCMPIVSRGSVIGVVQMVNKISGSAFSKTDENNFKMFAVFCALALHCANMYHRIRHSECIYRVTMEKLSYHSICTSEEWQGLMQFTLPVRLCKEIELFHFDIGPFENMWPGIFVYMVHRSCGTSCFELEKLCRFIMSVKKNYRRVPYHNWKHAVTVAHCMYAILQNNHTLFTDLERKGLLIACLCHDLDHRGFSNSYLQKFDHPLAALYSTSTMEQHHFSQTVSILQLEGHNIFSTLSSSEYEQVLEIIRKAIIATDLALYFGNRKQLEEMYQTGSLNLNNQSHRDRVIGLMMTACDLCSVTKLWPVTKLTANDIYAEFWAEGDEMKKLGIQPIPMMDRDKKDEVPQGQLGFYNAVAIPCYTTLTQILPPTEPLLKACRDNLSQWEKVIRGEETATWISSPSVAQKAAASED

[25] = Cardiotoxicity in zebrafish embryos assessed as artio-ventricular ratio at 1 to 100 uM; type: toxicity, Danio rerio
[26] = Cmax in BALB/c mouse at 10 mg/kg, iv measured for 24 hrs post dose by LC-MS/MS analysis; type: ADME, organism-based; parameters: dose 10 mg/kg, route intravenous; settings: in vivo
[27] = Clearance in BALB/c mouse at 10 mg/kg, iv measured for 24 hrs post dose by LC-MS/MS analysis; type: ADME, organism-based; settings: in vivo
[28] = test system: Rattus norvegicus; experiment: Antiinflammatory activity in complete Freund's adjuvant-induced Wistar rat arthritis model assessed as reduction in iNOS mRNA expression at 30 mg/kg, ip administered from 11th day to 20th day by qPCR analysis; type: functional, organism-based
[29] = molecular target: Dual specificity calcium/calmodulin-dependent 3',5'-cyclic nucleotide phosphodiesterase 1A (Homo sapiens) (UniProt P54750); experiment: Inhibition of recombinant N-terminal GST-tagged full-length human PDE1A1 expressed in Sf9 cells using FAM-cAMP as substrate at 10 uM incubated for 60 mins by fluorescence plate reader analysis
[30] = Toxicity in zebrafish embryo; parameters: species or system Danio rerio; settings: in vivo
[31] = Cardiotoxicity in zebrafish embryos assessed as heart rate at 1 to 100 uM; type: toxicity, Danio rerio
[32] = test system: Rattus norvegicus; experiment: Antiinflammatory activity in complete Freund's adjuvant-induced Wistar rat arthritis model assessed as reduction in IL6 expression in serum at 30 mg/kg, ip administered from 11th day to 20th day by ELISA; type: functional, organism-based
[33] = molecular target: High affinity cGMP-specific 3',5'-cyclic phosphodiesterase 9A (Homo sapiens) (UniProt O76083); experiment: Inhibition of recombinant N-terminal GST-tagged full length human PDE9A2 expressed in Sf9 cells using F AM-cGMP as substrate at 10 uM incubated for 60 mins by fluorescence plate reader analysis
High affinity cGMP-specific 3',5'-cyclic phosphodiesterase 9A (Homo sapiens), sequence (O76083 whole entry): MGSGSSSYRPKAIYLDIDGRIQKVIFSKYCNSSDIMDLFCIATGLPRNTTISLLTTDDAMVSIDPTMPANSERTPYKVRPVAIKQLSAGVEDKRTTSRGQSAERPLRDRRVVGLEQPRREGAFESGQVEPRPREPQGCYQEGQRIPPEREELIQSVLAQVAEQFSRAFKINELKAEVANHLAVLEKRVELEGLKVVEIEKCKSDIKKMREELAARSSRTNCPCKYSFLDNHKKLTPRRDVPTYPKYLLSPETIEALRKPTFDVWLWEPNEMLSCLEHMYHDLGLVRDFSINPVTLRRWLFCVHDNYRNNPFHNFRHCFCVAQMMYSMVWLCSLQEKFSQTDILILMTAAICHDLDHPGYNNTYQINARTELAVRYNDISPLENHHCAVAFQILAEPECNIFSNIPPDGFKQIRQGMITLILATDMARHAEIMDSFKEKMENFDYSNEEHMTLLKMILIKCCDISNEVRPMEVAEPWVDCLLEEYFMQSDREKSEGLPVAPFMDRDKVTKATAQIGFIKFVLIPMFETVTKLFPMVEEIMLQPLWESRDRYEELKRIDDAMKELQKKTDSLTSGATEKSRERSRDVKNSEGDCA

With C=CCn1cc(-c2nc3ccccc3nc2Cl)c2cc(OC)ccc21 the inhibition [1] was “Active”, the Activity [2] was “Toxic” and the Activity [3] was “Toxic”. The inhibition [4] was “Active”, the pIC50 [5] was 4.97 and the inhibition [6] was 2%. The microsomal CLint at 5 µM [7] was 52.8 µL/min/mg, the inhibition [8] was greater than 75% and the Activity [9] was “Non-Toxic”. It also gave an inhibition [10] of 40%, an inhibition [11] of 3% and an AUC(0-inf) [12] of 1160 ng·h/mL. For the same compound, the Activity [13] was “Non-Toxic”, the Activity [14] was “Non-Toxic” and the inhibition [15] was “inactive”. For the same compound, the inhibition [16] was 3%, the inhibition [17] was 3% and the half-life at 5 µM [18] was 52.5 min. The Activity [19] was “Non-Toxic”, the inhibition [20] was 7% and the half-life [21] was 38.4 min. For the same compound, the Activity [22] was “Non-Toxic”, the Activity [23] was “Active” and the inhibition [24] was 13%. For the same compound, the Activity [25] was “Non-Toxic”, the Cmax [26] was 2850 ng/mL and the clearance [27] was 143 mL/min/kg. The inhibition [28] was “Active”, the inhibition [29] was 12% and the NOAEL [30] was 30 µM. The Activity [31] was “Non-Toxic”, the inhibition [32] was “Active” and the inhibition [33] was 9%.
